The values that follow are results of earlier work, collected in patent publication US20210228489A1, “COMPOSITIONS FOR TREATING CYSTIC FIBROSIS” (Vertex Pharmaceuticals Incorporated, priority 2017, published 2021).

The subject of this series is CFTR. Conditions: CFTR modulator; disclosed in PCT Publication No. WO 2016/057572.

Some results are limits rather than exact numbers.

Consider `CC(C)COc1cc(F)cc(-c2ccc(C(=O)NS(=O)(=O)c3cccc(N)n3)c(N3C[C@@H](C)CC3(C)C)n2)c1` [Compound I, N-[(6-amino-2-pyridyl)sulfonyl]-6-(3-fluoro-5-isobutoxy-phenyl)-2-[(4S)-2,2,4-trimethylpyrrolidin-1-yl]pyridine-3-carboxamide], for which the EC30 was under 3 µM.
